In patent US6469040B2, “Method of using cyclooxygenase-2 inhibitors in the treatment and prevention of neoplasia” (G.D. Searle & Co., priority 1997, dated 2002):

Assays:
[1] = test system: Lewis Lung carcinoma cells; details: CTX 50 mg/kg injected on days 5, 7 and 9
Procedure: Lewis Lung carcinoma cells (2.5×10^6 cells) prepared from a brei carried in C57BL/6 mice were injected subcutaneously into the hind legs of mice. […] Cyclophosphamide (CTX) was injected to mice on days 5,7 and 9 after the implantation of the tumor at a dose of 50 mg/kg. Tumor volume was determined during the study. The % inhibition was calculated as above.

PC-3 cells = assay: PC-3 human prostate cancer cell tumors in nude mice; assay type: in vivo; details: 20 mg/kg/day in water from day 28, after 45 days
Procedure: (§1) Two human prostate cancer cell lines (PC-3 and LNCaP) were obtained (ATCC) to determine the efficacy of cyclooxygenase-2 inhibitors to inhibit tumor growth in a therapeutic model. In addition, the LNCaP cell line secretes prostate serum antigen (PSA) when grown in nude mice.
PC-3 cells (10^6 cells/0.2 ml of 30% matrigel) in RPMI 1640 medium was injected on the back of nude mice. […] After 45 days, PGE2 and TXB2 were measured.

LNCaP = LNCaP human prostate cancer cell tumors in nude mice; assay type: in vivo; details: 6 mg/kg/day in drinking water
From the text: as §1
PSA level was reduced to approximately 50% as judged by western blotting.

Row | Compound | Tumor Volume (Day 22) % Inhibition [1] | PGE2 level reduction (PC-3 cells) | TXB2 level reduction (PC-3 cells) | inhibition of growth of the tumor (LNCaP; day 58) | PSA level reduced to (LNCaP; judged by western blotting)
1 | O=P1(N(CCCl)CCCl)NCCCO1 (centres unmarked) [CTX, Cyclophosphamide] | 57% | – | – | – | –
2 | NS(=O)(=O)c1ccc(-n2nc(C(F)F)cc2-c2ccc(Cl)cc2)cc1 [COX-2 inhibitor, 4-[5-(4-chlorophenyl)-3-(difluoromethyl)-1H-pyrazol-1-yl]benzenesulfonamide] | – | 80-90% | 80-90% | 55% | approximately 50%
